Experimental data as given in patent US5545639A, “Method of inhibiting transformed cells” (The United States of America as represented by the …, priority 1994, dated 1996).
pIC50: −log10 of the molar value.

Columns and labels:
Experiment in all cases: Dose response of growth, tumor cell line
COLO 205 = format: cell-based; details: Homo sapiens, COLO 205, colon cancer
Description: (§1) Indeed, 70% of the cell lines were shown not only to experience precluded growth, but cell death, when exposed to less then 100 μM of the active ingredient.

NCI-H23 = format: cell-based; details: Homo sapiens, NCI-H23, non-small cell lung cancer
Description: as §1

SNB-78 = format: cell-based; details: Homo sapiens, SNB-78, CNS cancer
Description: as §1

U251 = format: cell-based; details: Homo sapiens, U-251, U251, CNS cancer
Description: as §1

P388/ADR = format: cell-based, murine; details: miscellaneous
Description: as §1

P388 = format: cell-based, murine; details: P388, miscellaneous
Description: as §1

[1] = read-out: 50% Growth (Relative to Control)
[2] = read-out: No Growth (Relative to Control)
[3] = Mus musculus, read-out: 50% Growth (Relative to Control)
[4] = Mus musculus, read-out: No Growth (Relative to Control)

**Q.** Which results are given for ClCc1ccc2ccc3ccc(CCl)nc3c2n1 [2,9-bis(chloromethyl)-1,10-phenanthroline]?
**A.** pIC50 (COLO 205; [1]): 5.81; CC50 (COLO 205; read-out: 50% Loss (50% kill)): 5.54 µM; IC100 (COLO 205; [2]): 2.94 µM; pIC50 (NCI-H23; [1]): 5.73; CC50 (NCI-H23; read-out: 50% Loss (50% kill)): 7.24 µM; IC100 (NCI-H23; [2]): 3.68 µM; pIC50 (SNB-78; [1]): 5.64; CC50 (SNB-78; read-out: 50% Loss (50% kill)): > 100 µM; IC100 (SNB-78; [2]): 6.4 µM; pIC50 (U251; [1]): 5.69; CC50 (U251; read-out: 50% Loss (50% kill)): 8.11 µM; IC100 (U251; [2]): 4.09 µM; pIC50 (P388/ADR; [3]): 6.45; IC100 (P388/ADR; [4]): 3.82 µM; CC50 (P388/ADR; read-out: 50% Loss (50% kill)): > 100 µM; pIC50 (P388; [3]): 6.13; IC100 (P388; [4]): 3.01 µM; CC50 (P388; read-out: 50% Loss (50% kill)): 25.1 µM
